Measured values: patent US20200101068A1, “Heteroaryl Derivatives as PARP Inhibitors” (Lupin Limited, priority 2015, published 2020)

Each molecule was assayed against T1, PARP1 (Homo sapiens, UniProt P09874) (assay: PARP1 biochemical assay (BPS Bioscience kit, chemiluminescent)). Conditions: histone-coated plate, biotinylated NAD+, 60 min at 25° C., luminescence; read-out: PARP 1 inhibition IC50.
T1 construct: purchased BPS Bioscience
T1 sequence (P09874 whole entry): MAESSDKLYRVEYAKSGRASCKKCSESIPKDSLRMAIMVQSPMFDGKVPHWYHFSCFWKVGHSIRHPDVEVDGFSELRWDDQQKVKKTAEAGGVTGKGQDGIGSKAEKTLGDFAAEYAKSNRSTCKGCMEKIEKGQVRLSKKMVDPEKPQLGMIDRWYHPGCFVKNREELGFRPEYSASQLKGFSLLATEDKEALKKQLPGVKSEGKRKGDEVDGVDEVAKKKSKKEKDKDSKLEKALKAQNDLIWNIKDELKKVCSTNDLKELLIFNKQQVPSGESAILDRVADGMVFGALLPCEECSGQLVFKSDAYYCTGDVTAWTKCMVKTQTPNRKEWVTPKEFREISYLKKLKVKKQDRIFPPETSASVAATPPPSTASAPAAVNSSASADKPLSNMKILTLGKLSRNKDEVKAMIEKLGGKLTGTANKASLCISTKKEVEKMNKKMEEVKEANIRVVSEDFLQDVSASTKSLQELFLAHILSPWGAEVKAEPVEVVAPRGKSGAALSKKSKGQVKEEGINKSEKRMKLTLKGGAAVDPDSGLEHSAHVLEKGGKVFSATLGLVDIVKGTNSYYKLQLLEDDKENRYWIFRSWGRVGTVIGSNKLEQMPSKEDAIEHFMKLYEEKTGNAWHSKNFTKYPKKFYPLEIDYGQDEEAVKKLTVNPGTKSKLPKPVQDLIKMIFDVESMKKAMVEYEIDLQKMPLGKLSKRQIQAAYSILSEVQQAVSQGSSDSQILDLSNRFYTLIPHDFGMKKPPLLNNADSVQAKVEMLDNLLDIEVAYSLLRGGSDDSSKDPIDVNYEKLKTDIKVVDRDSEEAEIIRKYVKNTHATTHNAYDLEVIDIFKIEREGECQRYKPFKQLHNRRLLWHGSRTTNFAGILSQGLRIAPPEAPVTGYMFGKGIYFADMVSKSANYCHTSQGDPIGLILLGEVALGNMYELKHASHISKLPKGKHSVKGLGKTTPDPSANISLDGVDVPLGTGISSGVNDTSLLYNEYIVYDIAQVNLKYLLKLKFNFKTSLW
Protocol: Example 16: PARP1 Biochemical Assay
The assay was performed using BPS Bioscience kit. The 96-well strip plate was coated with 50 μl of histone mixture and incubated at 4° C. overnight. The next day, the wells were blocked by adding 100 μl of blocking buffer. The plate was washed and 25 μl of appropriate concentration of PARP1 (25-75 ng/well) was added in all of the Test and Positive control wells. In the Negative control wells, the enzyme was replaced with 25 μl of water. 5 μl each of 10× PARP assay buffer and activated DNA was added in all the wells (Test, Positive and Negative control wells). 10× concentration of the test compounds were prepared and 5 μl test compounds were added to the respective wells. The reaction volume was made up to 45 μl by adding water to all of the wells. 5 μl of 10× PARP assay mixture containing biotinilated NAD^+ was added in each well and the plate was incubated at ambient temperature (25° C.) for 60 min. After washing the plate 50 μl of Streptavidin-HRP was added in each well, the plate was incubated at RT for 30 min. The plate was washed and the luminescence was read in PHERAStar plate reader after adding 100 μl of chemiluminescent substrate.
PARP inhibition was calculated using the following formula:
% PARP inhibition=100−[(RLU test compound treated sample−RLU negative control)/(RLU Positive control−RLU negative control)×100]
IC50 values were calculated by plotting % inhibition against the respective concentrations of test compounds using GraphPad Prism 5.
Molecule `N#Cc1ccc(N2CCN([C@H]3C=C(c4cc5cnccc5c(=O)[nH]4)CC3)CC2)cc1` [Compound 36, (R)-4-(4-(3-(1-oxo-1,2-dihydro-2,6-naphthyridin-3-yl)cyclopent-2-en-1-yl)piperazin-1-yl)benzonitrile] has an IC50 of 0.5 to 5 nM.
`N#Cc1ccc(N2CCN([C@H]3C=C(c4cc5cccnc5c(=O)[nH]4)CC3)CC2)cc1` [Compound 37, (R)-4-(4-(3-(8-oxo-7,8-dihydro-1,7-naphthyridin-6-yl)cyclopent-2-en-1-yl)piperazin-1-yl)benzonitrile] gave an IC50 of 0.5 to 5 nM.
With `N#Cc1ccc(N2CCN([C@H]3C=C(c4cc5ccncc5c(=O)[nH]4)CC3)CC2)cc1` [Compound 38, (R)-4-(4-(3-(1-oxo-1,2-dihydro-2,7-naphthyridin-3-yl)cyclopent-2-en-1-yl)piperazin-1-yl)benzonitrile] the IC50 was 0.5 to 5 nM.
Molecule `O=c1[nH]c(C2=C[C@H](N3CCN(c4ccc(F)cc4F)CC3)CC2)cc2ncccc12` [Compound 39, (R)-7-(3-(4-(2,4-difluorophenyl)piperazin-1-yl)cyclopent-1-en-1-yl)-1,6-naphthyridin-5(6H)-one] has an IC50 of 0.5 to 5 nM.
In the case of `N#Cc1ccc(N2CCN([C@H]3C=C(c4cc5ncncc5c(=O)[nH]4)CC3)CC2)cc1` [Compound 40, (R)-4-(4-(3-(5-oxo-5,6-dihydropyrido[4,3-d]pyrimidin-7-yl)cyclopent-2-en-1-yl)piperazin-1-yl)benzonitrile], the IC50 is reported as 0.5 to 5 nM.
With `N#Cc1ccc(N2CCN([C@H]3C=C(c4cc5nccnc5c(=O)[nH]4)CC3)CC2)cc1` [Compound 41, (R)-4-(4-(3-(5-oxo-5,6-dihydropyrido[3,4-b]pyrazin-7-yl)cyclopent-2-en-1-yl)piperazin-1-yl)benzonitrile] the IC50 was 5.1 to 50 nM.
With `N#Cc1ccc(N2CCN([C@H]3C=C(c4cc5sccc5c(=O)[nH]4)CC3)CC2)cc1` [Compound 42, (R)-4-(4-(3-(4-oxo-4,5-dihydrothieno[3,2-c]pyridin-6-yl)cyclopent-2-en-1-yl)piperazin-1-yl)benzonitrile] the IC50 was 0.5 to 5 nM.
`N#Cc1ccc(N2CCN([C@H]3C=C(c4cc5ncsc5c(=O)[nH]4)CC3)CC2)cc1` [Compound 43, (R)-4-(4-(3-(4-oxo-4,5-dihydrothiazolo[5,4-c]pyridin-6-yl)cyclopent-2-en-1-yl)piperazin-1-yl)benzonitrile] gave an IC50 of 0.5 to 5 nM.
Molecule `N#Cc1ccc(N2CCN([C@H]3C=C(c4cc5scnc5c(=O)[nH]4)CC3)CC2)cc1` [Compound 44, (R)-4-(4-(3-(4-oxo-4,5-dihydrothiazolo[4,5-c]pyridin-6-yl)cyclopent-2-en-1-yl)piperazin-1-yl)benzonitrile] has an IC50 of 0.5 to 5 nM.
`N#Cc1ccc(N2CCN([C@@H]3C=C(c4cc5sccc5c(=O)[nH]4)CC3)CC2)cc1` [Compound 45, (S)-4-(4-(3-(4-oxo-4,5-dihydrothieno[3,2-c]pyridin-6-yl)cyclopent-2-en-1-yl)piperazin-1-yl)benzonitrile] was tested, and the IC50 was 5.1 to 50 nM.
For `O=c1[nH]c(C2=C[C@H](N3CCN(c4ccc(F)cc4)CC3)CC2)cc2sccc12` [Compound 47, (R)-6-(3-(4-(4-fluorophenyl)piperazin-1-yl)cyclopent-1-en-1-yl)thieno[3,2-c]pyridin-4(5H)-one], the IC50 was 0.5 to 5 nM.
Work on `O=c1[nH]c(C2=C[C@H](N3CCN(c4ccccc4)CC3)CC2)cc2sccc12` [Compound 48, (R)-6-(3-(4-phenylpiperazin-1-yl)cyclopent-1-en-1-yl)thieno[3,2-c]pyridin-4(5H)-one] yielded an IC50 of 0.5 to 5 nM.
With `CNC(=O)c1ccc(N2CCN([C@H]3C=C(c4cc5sccc5c(=O)[nH]4)CC3)CC2)cc1` [Compound 49, (R)—N-methyl-4-(4-(3-(4-oxo-4,5-dihydrothieno[3,2-c]pyridin-6-yl)cyclopent-2-en-1-yl)piperazin-1-yl)benzamide] the IC50 was 0.5 to 5 nM.
For `N#Cc1ccc(N2CCN([C@H]3C=C(c4cc5sccc5c(=O)[nH]4)CC3)CC2)nc1` [Compound 50, (R)-6-(4-(3-(4-oxo-4,5-dihydrothieno[3,2-c]pyridin-6-yl)cyclopent-2-en-1-yl)piperazin-1-yl)nicotinonitrile], the IC50 was 0.5 to 5 nM.
Molecule `O=c1[nH]c(C2=C[C@H](N3CCN(c4nccs4)CC3)CC2)cc2sccc12` [Compound 51, (R)-6-(3-(4-(thiazol-2-yl)piperazin-1-yl)cyclopent-1-en-1-yl)thieno[3,2-c]pyridin-4(5H)-one] has an IC50 of 5.1 to 50 nM.
`N#Cc1ccc(N2CCN([C@H]3C=C(c4cc5ncsc5c(=O)[nH]4)CC3)CC2)c(F)c1` [Compound 52, (R)-3-fluoro-4-(4-(3-(4-oxo-4,5-dihydrothiazolo[5,4-c]pyridin-6-yl)cyclopent-2-en-1-yl)piperazin-1-yl)benzonitrile] gave an IC50 of 0.5 to 5 nM.
With `N#Cc1ccc(N2CCN([C@H]3C=C(c4cc5cccn5c(=O)[nH]4)CC3)CC2)cc1` [Compound 54, (R)-4-(4-(3-(1-oxo-1,2-dihydropyrrolo[1,2-c]pyrimidin-3-yl)cyclopent-2-en-1-yl)piperazin-1-yl)benzonitrile] the IC50 was 0.5 to 5 nM.
For `O=c1[nH]c(C2=C[C@H](N3CCN(c4ccc(F)cc4)CC3)CC2)cc2cccn12` [Compound 55, (R)-3-(3-(4-(4-fluorophenyl)piperazin-1-yl)cyclopent-1-en-1-yl)pyrrolo [1,2-c]pyrimidin-1(2H)-one], the IC50 was 0.5 to 5 nM.
Molecule `N#Cc1ccc(N2CCN([C@H]3C=C(c4cn5cccc5c(=O)[nH]4)CC3)CC2)cc1` [Compound 56, (R)-4-(4-(3-(1-oxo-1,2-dihydropyrrolo[1,2-a]pyrazin-3-yl)cyclopent-2-en-1-yl)piperazin-1-yl)benzonitrile] has an IC50 of 0.5 to 5 nM.
